Experimental data as given in patent US20020103169A1, “Chemical derivatives and use thereof as antitelomerase agents” (priority 2000, published 2002).
Like-named read-outs stand apart in the source and are kept apart here.

Experiments:
[1] = system: G-quadruplex, oligonucleotide GGGTTAGGGTTAGGGTTAGGG (human telomeric motif); assay: Fluorescence Tm: G-quadruplex stabilization of FAM+DABCYL telomeric oligonucleotide; format: binding; settings: product 1 μM, oligonucleotide 0.2 μM, 0.1 M LiCl, 10 mM sodium cacodylate pH 7.6; reference Tm 44° C.
Text: The G-quadruplex stabilizing activity can be determined with a method using the formation of a complex with fluorescein, for which the experimental protocol is described below. The compounds of the present invention can thus be used as a fluorescent probe for determining the presence of G-quadruplexes.
All the oligonucleotides, modified or unmodified, were synthesized by Eurogentec SA, Seraing, Belgium. The FAM+DABCYL oligonucleotide carries the catalogue reference OL-0371-0802 and has the sequence: […] (SEQ ID NO: 1), corresponding to 3.5 repeats of the human telomeric motif (strand rich in G). The fluorescein is attached to the 5′ end and the DABCYL to the 3′ end, via the chemical arms described by Eurogentec. The concentration of the samples was verified by spectrophotometry, recording the absorbance spectrum between 220 nm and 700 nm and using the molar extinction coefficient provided by the supplier. […]
All the measurements of fluorescence were carried out on a Spex Fluorolog DM1B apparatus, using an excitation line width of 1.8 nm and an emission line width of 4.5 nm. […] The oligonucleotide alone was analysed at 20, 30, 40, 50, 60, 70, and 80° C. The emission spectra were recorded using an excitation wavelength of 470 nm. The excitation spectra were recorded using either 515 nm or 588 nm as the emission wavelength. […] When present, this juxtaposition caused the aforementioned phenomenon of extinction of fluorescence, which was used for determining the presence of a G-quadruplex.
A stock solution of oligonucleotide at the strand concentration of 0.2 μM in a 0.1 M LiCl, 10 mM sodium cacodylate buffer, pH 7.6, was prepared beforehand, heated briefly at 90° C. and slowly cooled to 20° C., and then distributed, in 600 μl aliquots, into the fluorescence cuvettes. […]
Each experiment allows the measurement of only one sample. […] During this time, the fluorescence was measured simultaneously at two emission wavelengths (515 nm and 588 nm) using 470 nm as the excitation wavelength. […]

human telomerase = assay: Telomerase activity assay (TRAP) with HL60 cell extract; format: biochemical; settings: HL60 extract enriched in telomerase activity, TS extension followed by PCR
Procedure: The extract was stored at -80° C. […] ID NO: 3).

A549 cells = assay: Cytotoxic activity on human tumor line, neutral red, 96 hours; format: cell-based
Procedure: The cells in the exponential growth phase were trypsinized, washed in 1X PBS and seeded into 96-well microplates (Costar) in a proportion of 4×10^4 cells/ml (0.2 ml/well). The cells were then incubated for 96 hours in the presence of varying concentrations of product to be tested (10,1, 0.1, and 0.01 μg/ml, each point in quadruplicate). 16 hours before the end of the incubation, 0.02% (final concentration) of neutral red was added to each well. At the end of the incubation, the cells were washed with IX PBS and lysed with 1% of sodium laurylsulphate. The cellular incorporation of the dye, which reflects cell growth, was evaluated by spectrophotometry at a wavelength of 540 nm for each sample, using a Dynatech MR5000 reader machine.

Compound | Fluorescence Δ Tm [1] [°C] | IC50 (human telomerase) [nM] | IC50 (A549 cells) [µM] | IC50 (A549 cells; 96 hours incubation, neutral red incorporation, read-out: A459 Cytotox IC50) [µM]
7-Amino-2-(2-amino-1,6-dimethylpyrimidinio-4-yl)-(4-aminophenyl)-10-ethylphenanthridinium bromide [Example 3] | 9.6 | 47 | 13.4 | –
Br.CC[n+]1c(-c2ccccc2)c2c(N=Nc3cccc(C(=N)N)c3)c(N)ccc2c2ccc(N)cc21.[Br-] [Example 2, 8-(3-Amidinophenyl)diazo-2,7-diamino-10-ethyl-9-phenylphenanthridinium bromide hydrobromide] | 7.9 | 97 | – | –
CC[n+]1c(-c2ccccc2)c2cc(NN=Nc3cccc(C(=N)N)c3)ccc2c2ccc(N)cc21.Cl.[Cl-] [Example 1, 7-(3-amidinophenyl)diazoamino-2-amino-10-ethyl-9-phenylphenanthridinium chloride hydrochloride] | 9.7 | 19 | – | 3.38
